# Source: patent EP2077104A1, “Micellar compositions with ophtalmic applications” (Novagali Pharma S.A., priority 2008, dated 2009)
# Assay: Zeta potential of emulsion surface
# Format: physicochemical
# Settings: 0.002% CKC in emulsion
# Source text: Thus in preferred embodiments, micellar compositions of the present invention have a positive zeta potential. As known in the art, the zeta potential is a measure of the magnitude of repulsion or attraction between particles (Washington, Adv. Drug Deliv. Reviews, 1996, 20:131-145). The Zeta potential is not measurable directly but it can be calculated using theoretical models and an experimentally-determined electrophoretic mobility or dynamic electrophoretic mobility. As known in the art, electrophoretic mobility can be determined using micro-electrophoresis or electrophoretic light scattering.
# All the eye drops were supplied by Novagali Pharma (Evry, France) and were sterile with physiological pH and osmolality. The present Applicants chose to compare 0.02% BAK to 0.002% CKC since these two QAC concentrations confer equivalent positive charge to the emulsion surface (zeta potential around 20 mV).
smiles,measurement,value
"CCCCCCCCCCCCCCCC[N+](C)(C)Cc1ccccc1 [Cetalkonium chloride, cetalkonium chloride]",zeta potential,around 20 mV
